From patent publication US20030211163A1, “Combination antiviral therapy” (priority 2002, published 2003)
≈ marks a conversion by molar mass, not a printed value. Where two headings read alike, the source gives them in different places.

Assays:
[1] = Solubility of the drug in vehicles (drug saturated solutions); assay type: physicochemical
[2] = Franz diffusion cell skin drug permeation through cadaver skin, 24 hour period, HPLC; assay type: in vitro ADME; conditions: for Flux: cadaver skin; for Skin Flux: Table 4 (examples)
Protocol: As a way of measuring the skin drug permeation properties of the COX-2 inhibitors, a Franz diffusion cell was provided utilizing cadaver skin as the membrane and a 1% Tween 80 solution as the receptor phase. Frozen cadaver skin was thawed at room temperature and punched with a 20 mm puncher. The receptor compartment of the Franz diffusion cell was filled with 1% Tween 80 solution and the diffusion cells maintained at 32° C. A 6% polyethylene glycol-20-oleyl ether is also suitable as a receptor fluid. The skin was mounted on the receptor, covered with the cup and fastened by a clamp. The air bubbles were removed from the receptor fluid and it was allowed to equilibrate for 30 minutes. COX-2 pharmaceutical compositions, according to the present invention, were brought into contact with the cadaver skin and the amount of drug which permeated through the cadaver skin in a 24 hour period was determined by high performance liquid chromatography.

[3] = Table 1, drug saturated solution, vehicle 70% EtOH, 32° C.
[4] = Table 1, drug saturated solution, vehicle EtOH
[5] = Table 6 (examples), Saturated Cb in 5% Pb, 67% EtOH
[6] = Table 6 (examples), Saturated Vb in 5% Pb, 67% EtOH

solubility ([1]; 70% aqueous ethanol, aqueous with cosolvent or surfactant or cyclodextrin, thermodynamic from solid, Table 1, drug saturated solution, vehicle 70% EtOH, read-out: Solubility) [mg/mL] | solubility ([1]; Table 2, 70% aqueous ethanol solution) [mg/mL] | solubility ([1]; ethanol, organic solvent or mixture, thermodynamic from solid, Table 1, drug saturated solution, vehicle EtOH, read-out: Solubility) [mg/mL] | solubility ([1]; polyethylene glycol 400, organic solvent or mixture, thermodynamic from solid, Table 1, drug saturated solution, vehicle PEG 400, read-out: Solubility) [mg/mL] | solubility ([1]; propylene glycol, organic solvent or mixture, thermodynamic from solid, Table 1, drug saturated solution, vehicle PG, read-out: Solubility) [mg/mL] | Flux [2, 3] [μg/cm^2 · day] | Flux [2, 4] [μg/cm^2 · day] | Flux [2, 5] [μg/cm^2 · day] | solubility ([1]; aqueous with cosolvent or surfactant or cyclodextrin, thermodynamic from solid) [mg/mL] | Flux [2, 6] [μg/cm^2 · day] | Effect as permeation enhancer on transdermal delivery of selective COX-2 drugs across the skin ([2]; parecoxib used as permeation enhancer) | Skin Flux ([2]; % w/w: water 30, ethanol 30, isopropanol 10, 1,3-butanediol 22, oleyl alcohol 5, thymol 3) [μg/cm^2 · day] | Skin Flux ([2]; % w/w: water 30, ethanol 62, oleyl alcohol 5, thymol 3) [μg/cm^2 · day] | Skin Flux ([2]; % w/w: water 33, ethanol 62, oleyl alcohol 5) [μg/cm^2 · day] | SMILES
15.2 (≈ 39.9 mM) | 15.2 (≈ 39.9 mM) | 91.4 (≈ 240 mM) | 297 (≈ 779 mM) | 33.3 (≈ 87.3 mM) | 15.7 | 5.62 | 183 ± 153 |  |  |  |  |  |  | Cc1ccc(-c2cc(C(F)(F)F)nn2-c2ccc(S(N)(=O)=O)cc2)cc1 [Celecoxib, celecoxib]
 |  |  |  |  |  |  | 74.7 ± 14.7 | 386 (≈ 1040 mM) | 64.1 ± 11.3 | increase the transdermal delivery |  |  |  | CCC(=O)NS(=O)(=O)c1ccc(-c2c(-c3ccccc3)noc2C)cc1 [Parecoxib, parecoxib]
 |  |  |  |  | 12.8 | 1.44 |  |  | 108 ± 16.7 |  | 302 ± 48.9 | 441 ± 160 | 287 ± 23.9 | Cc1onc(-c2ccccc2)c1-c1ccc(S(N)(=O)=O)cc1 [Valdecoxib, valdecoxib]
